Data as given in ChEMBL document CHEMBL4828725 (Eur J Med Chem, 2021).

Experiments:
[1] = species on record: Bos taurus; assay: Inhibition of bovine liver beta-galactosidase using p-nitrophenyl glycoside as substrate assessed as release of p-nitrophenol at 1000 uM measured by spectrometric assay relative to control
[2] = system: Penicillium decumbens; assay: Inhibition of Penicillium decumbens alpha-L-rhamnosidase using p-nitrophenyl glycoside as substrate assessed as release of p-nitrophenol at 1000 uM measured by spectrometric assay relative to control
[3] = system: Helix pomatia; assay: Inhibition of snail beta-mannosidase using p-nitrophenyl glycoside as substrate assessed as release of p-nitrophenol at 1000 uM measured by spectrometric assay relative to control
[4] = Inhibition of Aspergillus niger amyloglucosidase using p-nitrophenyl glycoside as substrate assessed as release of p-nitrophenol measured by spectrometric assay
[5] = system: Prunus dulcis; assay: Inhibition of almond beta-glucosidase using p-nitrophenyl glycoside as substrate assessed as release of p-nitrophenol at 1000 uM measured by spectrometric assay relative to control
[6] = target: Beta-glucuronidase (Escherichia coli (strain K12), UniProt P05804); assay: Inhibition of Escherichia coli beta-glucuronidase using p-nitrophenyl glycoside as substrate assessed as release of p-nitrophenol measured by spectrometric assay
[7] = Inhibition of snail beta-mannosidase using p-nitrophenyl glycoside as substrate assessed as release of p-nitrophenol measured by spectrometric assay; design: species or system Helix pomatia
[8] = target: Beta-glucuronidase (Escherichia coli (strain K12)) (UniProt P05804); assay: Inhibition of Escherichia coli beta-glucuronidase using p-nitrophenyl glycoside as substrate assessed as release of p-nitrophenol at 1000 uM measured by spectrometric assay relative to control
[9] = target: Alpha-galactosidase (Coffea arabica, UniProt Q42656); assay: Inhibition of coffee beans alpha-galactosidase using p-nitrophenyl glycoside as substrate assessed as release of p-nitrophenol measured by spectrometric assay
[10] = Inhibition of beta-glucosidase (unknown origin); design: species or system Homo sapiens
[11] = Inhibition of jack bean alpha-mannosidase using p-nitrophenyl glycoside as substrate assessed as release of p-nitrophenol measured by spectrometric assay; design: species or system Canavalia ensiformis
[12] = target: T1, Tissue alpha-L-fucosidase (Bos taurus, UniProt Q2KIM0); assay: Inhibition of bovine kidney alpha-L-fucosidase using p-nitrophenyl glycoside as substrate assessed as release of p-nitrophenol measured by spectrometric assay
T1 sequence (Q2KIM0 whole entry): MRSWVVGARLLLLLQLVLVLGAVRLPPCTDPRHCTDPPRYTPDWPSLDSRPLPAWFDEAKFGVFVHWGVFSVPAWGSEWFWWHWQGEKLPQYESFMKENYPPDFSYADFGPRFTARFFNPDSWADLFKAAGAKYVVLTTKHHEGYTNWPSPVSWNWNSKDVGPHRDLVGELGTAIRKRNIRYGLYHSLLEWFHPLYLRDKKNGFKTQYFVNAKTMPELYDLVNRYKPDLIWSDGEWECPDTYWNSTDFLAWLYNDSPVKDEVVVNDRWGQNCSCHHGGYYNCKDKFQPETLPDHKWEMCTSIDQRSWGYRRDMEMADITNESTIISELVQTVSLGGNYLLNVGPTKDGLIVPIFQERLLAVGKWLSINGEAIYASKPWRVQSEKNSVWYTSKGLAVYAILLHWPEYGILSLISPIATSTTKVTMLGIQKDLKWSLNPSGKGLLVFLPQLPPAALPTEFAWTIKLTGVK

[13] = Inhibition of rice alpha-glucosidase using p-nitrophenyl glycoside as substrate assessed as release of p-nitrophenol measured by spectrometric assay; design: species or system Oryza sativa; conditions: read-out: IC50
[14] = target: T2, Tissue alpha-L-fucosidase (Bos taurus) (UniProt Q2KIM0); assay: Inhibition of bovine kidney alpha-L-fucosidase using p-nitrophenyl glycoside as substrate assessed as release of p-nitrophenol at 1000 uM measured by spectrometric assay relative to control; type: tissue-based
T2 sequence (whole entry): T1 sequence (Q2KIM0 whole entry)

[15] = Inhibition of bovine liver beta-galactosidase using p-nitrophenyl glycoside as substrate assessed as release of p-nitrophenol measured by spectrometric assay; type: tissue-based, Bos taurus
[16] = Inhibition of Penicillium decumbens alpha-L-rhamnosidase using p-nitrophenyl glycoside as substrate assessed as release of p-nitrophenol measured by spectrometric assay
[17] = species on record: Bos taurus; assay: Inhibition of bovine liver beta-glucosidase using p-nitrophenyl glycoside as substrate assessed as release of p-nitrophenol at 1000 uM measured by spectrometric assay relative to control; type: tissue-based
[18] = Inhibition of porcine kidney alpha-trehalase using p-nitrophenyl glycoside as substrate assessed as release of p-nitrophenol measured by spectrometric assay; design: species or system Sus scrofa; conditions: read-out: IC50
[19] = Inhibition of almond beta-glucosidase using p-nitrophenyl glycoside as substrate assessed as release of p-nitrophenol measured by spectrometric assay; design: species or system Prunus dulcis
[20] = Inhibition of bovine liver beta-glucosidase using p-nitrophenyl glycoside as substrate assessed as release of p-nitrophenol measured by spectrometric assay; design: species or system Bos taurus
[21] = target: Alpha-galactosidase (Coffea arabica) (UniProt Q42656); assay: Inhibition of coffee beans alpha-galactosidase using p-nitrophenyl glycoside as substrate assessed as release of p-nitrophenol at 1000 uM measured by spectrometric assay relative to control
[22] = target: T3, Alpha-mannosidase (Canavalia ensiformis) (UniProt C0HJB3); assay: Inhibition of jack bean alpha-mannosidase using p-nitrophenyl glycoside as substrate assessed as release of p-nitrophenol at 1000 uM measured by spectrometric assay relative to control
T3 sequence (whole entry): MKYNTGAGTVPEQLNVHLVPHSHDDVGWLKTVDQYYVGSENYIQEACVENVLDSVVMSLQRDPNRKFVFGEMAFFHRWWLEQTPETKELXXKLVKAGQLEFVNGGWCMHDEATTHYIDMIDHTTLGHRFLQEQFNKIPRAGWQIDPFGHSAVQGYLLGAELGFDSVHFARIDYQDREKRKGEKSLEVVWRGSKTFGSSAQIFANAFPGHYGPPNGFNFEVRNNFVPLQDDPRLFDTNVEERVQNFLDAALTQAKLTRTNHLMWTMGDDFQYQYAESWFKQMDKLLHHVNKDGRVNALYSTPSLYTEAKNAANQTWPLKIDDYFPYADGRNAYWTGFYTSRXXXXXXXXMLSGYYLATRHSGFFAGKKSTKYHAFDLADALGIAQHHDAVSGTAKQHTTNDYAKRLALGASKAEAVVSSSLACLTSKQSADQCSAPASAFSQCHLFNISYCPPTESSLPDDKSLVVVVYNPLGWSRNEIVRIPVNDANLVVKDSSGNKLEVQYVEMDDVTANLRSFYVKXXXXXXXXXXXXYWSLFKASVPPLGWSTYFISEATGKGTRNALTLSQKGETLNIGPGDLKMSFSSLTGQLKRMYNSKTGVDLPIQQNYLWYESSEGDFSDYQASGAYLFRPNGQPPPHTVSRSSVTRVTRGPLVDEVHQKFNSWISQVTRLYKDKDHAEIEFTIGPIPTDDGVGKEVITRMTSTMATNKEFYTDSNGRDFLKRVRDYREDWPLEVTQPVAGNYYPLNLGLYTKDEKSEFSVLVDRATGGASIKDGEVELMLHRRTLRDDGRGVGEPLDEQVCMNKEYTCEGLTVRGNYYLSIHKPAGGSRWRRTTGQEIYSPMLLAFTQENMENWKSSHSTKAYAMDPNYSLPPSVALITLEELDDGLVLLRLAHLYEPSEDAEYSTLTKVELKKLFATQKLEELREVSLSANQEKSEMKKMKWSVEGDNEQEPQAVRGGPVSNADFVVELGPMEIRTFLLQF

[23] = Inhibition of rat intestinal maltase using maltose as substrate assessed as release of D-glucose measured by spectrometric assay
[24] = target: T4, Sucrase-isomaltase, intestinal (Rattus norvegicus, UniProt P23739); assay: Inhibition of rat intestinal sucrase using p-nitrophenyl glycoside as substrate assessed as release of p-nitrophenol measured by spectrometric assay; conditions: read-out: IC50
[25] = target: Maltase-glucoamylase (Homo sapiens, UniProt O43451); assay: Inhibition of human alpha-glucosidase
[26] = target: T4, Sucrase-isomaltase, intestinal; assay: Inhibition of rat intestinal isomaltase using p-nitrophenyl glycoside as substrate assessed as release of p-nitrophenol measured by spectrometric assay; conditions: read-out: IC50
[27] = system: Aspergillus niger; assay: Inhibition of Aspergillus niger amyloglucosidase using p-nitrophenyl glycoside as substrate assessed as release of p-nitrophenol at 1000 uM measured by spectrometric assay relative to control

Chain of Beta-glucuronidase (P05804 whole entry): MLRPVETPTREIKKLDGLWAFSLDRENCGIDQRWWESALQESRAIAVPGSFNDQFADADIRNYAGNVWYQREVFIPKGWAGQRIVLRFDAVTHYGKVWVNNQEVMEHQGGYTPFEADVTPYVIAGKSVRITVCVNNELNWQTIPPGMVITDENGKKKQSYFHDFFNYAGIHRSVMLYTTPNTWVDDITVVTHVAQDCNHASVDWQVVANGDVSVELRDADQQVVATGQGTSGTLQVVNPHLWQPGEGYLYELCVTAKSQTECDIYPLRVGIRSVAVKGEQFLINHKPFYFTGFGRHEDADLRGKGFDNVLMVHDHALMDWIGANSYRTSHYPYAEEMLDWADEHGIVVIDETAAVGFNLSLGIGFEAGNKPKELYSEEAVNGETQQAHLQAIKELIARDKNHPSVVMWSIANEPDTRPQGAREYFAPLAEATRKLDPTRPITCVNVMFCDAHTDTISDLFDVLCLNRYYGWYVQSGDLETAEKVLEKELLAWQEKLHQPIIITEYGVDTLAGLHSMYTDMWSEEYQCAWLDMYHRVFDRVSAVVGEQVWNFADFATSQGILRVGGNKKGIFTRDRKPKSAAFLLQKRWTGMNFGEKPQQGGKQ
Chain of Beta-glucuronidase (Escherichia coli (strain K12)) (P05804 whole entry, looked up): as the sequence (P05804 whole entry) above
Chain of Alpha-galactosidase (Q42656 whole entry): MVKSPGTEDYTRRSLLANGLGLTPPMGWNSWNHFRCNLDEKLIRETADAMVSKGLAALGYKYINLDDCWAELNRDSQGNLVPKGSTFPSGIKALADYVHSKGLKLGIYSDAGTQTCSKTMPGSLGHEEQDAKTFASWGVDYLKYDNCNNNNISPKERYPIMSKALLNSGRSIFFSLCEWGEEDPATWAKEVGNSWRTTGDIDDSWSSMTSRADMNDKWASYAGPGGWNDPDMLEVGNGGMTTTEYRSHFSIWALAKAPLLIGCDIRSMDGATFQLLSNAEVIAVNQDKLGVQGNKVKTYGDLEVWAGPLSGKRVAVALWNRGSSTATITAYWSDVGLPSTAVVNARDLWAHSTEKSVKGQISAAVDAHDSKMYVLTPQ
T4 sequence (P23739 1-1013 limits assumed): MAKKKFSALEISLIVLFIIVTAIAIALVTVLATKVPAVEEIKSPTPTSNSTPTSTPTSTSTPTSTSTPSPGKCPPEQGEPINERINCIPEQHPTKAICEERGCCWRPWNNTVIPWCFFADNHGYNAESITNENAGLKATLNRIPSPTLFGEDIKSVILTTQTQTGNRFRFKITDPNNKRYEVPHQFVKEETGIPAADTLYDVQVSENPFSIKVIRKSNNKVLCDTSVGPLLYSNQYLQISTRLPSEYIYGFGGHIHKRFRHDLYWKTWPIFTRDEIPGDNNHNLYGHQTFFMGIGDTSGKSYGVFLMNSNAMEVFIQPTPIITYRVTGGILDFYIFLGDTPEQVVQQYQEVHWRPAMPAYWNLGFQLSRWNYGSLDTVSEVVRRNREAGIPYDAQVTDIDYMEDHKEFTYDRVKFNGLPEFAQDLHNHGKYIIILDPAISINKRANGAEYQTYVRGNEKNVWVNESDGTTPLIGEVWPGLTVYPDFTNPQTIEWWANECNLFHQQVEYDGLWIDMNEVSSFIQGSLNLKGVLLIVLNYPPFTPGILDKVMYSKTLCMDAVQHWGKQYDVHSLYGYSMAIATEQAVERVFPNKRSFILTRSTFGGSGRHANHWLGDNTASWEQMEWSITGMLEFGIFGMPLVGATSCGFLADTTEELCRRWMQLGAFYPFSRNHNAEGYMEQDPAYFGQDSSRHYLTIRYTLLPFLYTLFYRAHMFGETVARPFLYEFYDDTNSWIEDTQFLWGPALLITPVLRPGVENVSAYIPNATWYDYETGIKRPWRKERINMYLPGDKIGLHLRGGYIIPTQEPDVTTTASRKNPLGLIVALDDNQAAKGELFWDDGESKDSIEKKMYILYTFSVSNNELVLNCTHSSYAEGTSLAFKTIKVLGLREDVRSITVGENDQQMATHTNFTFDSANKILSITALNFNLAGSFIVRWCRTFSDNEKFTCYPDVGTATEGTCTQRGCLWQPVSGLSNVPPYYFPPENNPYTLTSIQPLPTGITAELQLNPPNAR
T4 sequence (P23739 1014-1841 limits assumed): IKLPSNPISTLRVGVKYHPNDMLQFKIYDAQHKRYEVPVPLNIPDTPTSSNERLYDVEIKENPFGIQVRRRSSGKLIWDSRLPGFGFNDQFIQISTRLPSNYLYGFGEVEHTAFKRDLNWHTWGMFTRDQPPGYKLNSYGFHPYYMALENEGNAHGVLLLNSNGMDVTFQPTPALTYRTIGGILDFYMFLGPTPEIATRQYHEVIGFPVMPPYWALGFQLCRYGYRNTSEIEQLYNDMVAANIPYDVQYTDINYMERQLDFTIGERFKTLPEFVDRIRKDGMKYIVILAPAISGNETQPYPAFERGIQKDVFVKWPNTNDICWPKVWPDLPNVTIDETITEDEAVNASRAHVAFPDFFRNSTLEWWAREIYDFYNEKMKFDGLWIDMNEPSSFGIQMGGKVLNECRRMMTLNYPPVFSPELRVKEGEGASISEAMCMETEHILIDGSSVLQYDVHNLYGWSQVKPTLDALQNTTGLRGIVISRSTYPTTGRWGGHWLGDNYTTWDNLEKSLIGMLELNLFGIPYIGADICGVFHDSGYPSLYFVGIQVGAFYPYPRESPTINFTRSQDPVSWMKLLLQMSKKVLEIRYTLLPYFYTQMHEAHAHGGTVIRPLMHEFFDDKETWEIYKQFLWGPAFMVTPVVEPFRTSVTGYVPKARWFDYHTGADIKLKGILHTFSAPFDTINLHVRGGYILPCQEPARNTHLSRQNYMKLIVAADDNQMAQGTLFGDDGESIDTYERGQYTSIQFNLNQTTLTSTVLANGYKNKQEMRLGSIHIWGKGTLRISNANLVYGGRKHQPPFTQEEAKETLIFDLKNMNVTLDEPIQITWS
Chain of Alpha-galactosidase (Coffea arabica) (Q42656 16-378 limits assumed): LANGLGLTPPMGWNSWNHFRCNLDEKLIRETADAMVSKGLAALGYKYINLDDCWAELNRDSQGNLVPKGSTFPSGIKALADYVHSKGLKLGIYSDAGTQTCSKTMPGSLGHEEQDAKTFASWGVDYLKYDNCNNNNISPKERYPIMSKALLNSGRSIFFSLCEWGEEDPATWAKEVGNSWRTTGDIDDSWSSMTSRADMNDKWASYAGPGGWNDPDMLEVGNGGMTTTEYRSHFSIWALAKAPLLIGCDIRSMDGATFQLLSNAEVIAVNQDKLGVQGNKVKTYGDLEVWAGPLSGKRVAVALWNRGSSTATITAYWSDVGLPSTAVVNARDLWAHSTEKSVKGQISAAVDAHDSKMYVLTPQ

| Structure (SMILES) | inhibition [1] | inhibition [2] | inhibition [3] | inhibition [5] | IC50 [6] | IC50 [7] | inhibition [8] | IC50 [11] | IC50 [12] | IC50 [13] | inhibition [14] | IC50 [15] | IC50 [16] | inhibition [17] | IC50 [18] | IC50 [19] | IC50 [20] | inhibition [22] | IC50 [23] | also measured |
| --- | --- | --- | --- | --- | --- | --- | --- | --- | --- | --- | --- | --- | --- | --- | --- | --- | --- | --- | --- | --- |
| OC[C@H]1NC[C@H](O)[C@@H](O)[C@@H]1O [DUVOGLUSTAT] | 0% | 45.6% | 4.8% | 12.1% | Not Active | Not Active | 0.8% | Not Active | Not Active | 0.44 µM | 1% | Not Active | Not Active | 4.6% | 48 µM | Not Active | Not Active | 17.4% | 0.12 µM | IC50 ([4]; read-out: IC50): 763 µM; IC50 [9]: Not Active; IC50 [10]: 0.27 µM; inhibition [21]: 13.7% |
| C[C@]1(CO)NC[C@H](O)[C@@H](O)[C@@H]1O.Cl | 11.9% | 2.4% | 2% | 6.7% | Not Active | Not Active | 0% | Not Active | Not Active | 0.0155 µM | 0% | Not Active | Not Active | 9.5% | 42 µM | Not Active | Not Active | 2.1% | 0.053 µM | IC50 [24]: 0.2 µM; IC50 [4]: Not Active; IC50 [25]: 1 µM; IC50 ([9]; read-out: IC50): 7.5 µM; IC50 [26]: 0.96 µM; inhibition [27]: 8% |
